Test results published in ChEMBL document CHEMBL3734729, “Synthesis and comparison of the biological activity of monocyclic phosphonate, difluorophosphonate and phosphate analogs of the natural AChE inhibitor cyclophostin” (Bioorg Med Chem, 2015).

Experiments:
Acetylcholinesterase [1] = molecular target: Acetylcholinesterase (Musca domestica, UniProt Q7YWJ9); assay: Inhibition of housefly CSMA AChE
Acetylcholinesterase [2] = molecular target: T1, Acetylcholinesterase (Homo sapiens, UniProt P22303); assay: Inhibition of AChE (unknown origin)
Acetylcholinesterase [3] = molecular target: T1, Acetylcholinesterase; assay: Irreversible inhibition of AChE (unknown origin)
Acetylcholinesterase [4] = molecular target: T1, Acetylcholinesterase; assay: Inhibition of human AChE at pH 8
Acetylcholinesterase [5] = molecular target: T1, Acetylcholinesterase; assay: Inhibition of human AChE at pH 6
[6] = Drug degradation in sodium phosphate buffer at pH 8 after 30 mins by NMR analysis; assay type: physicochemical; details: read-out: Drug degradation
[7] = Drug degradation in sodium phosphate buffer at pH 8 after 1 hr by NMR analysis; assay type: physicochemical; details: read-out: Drug degradation
[8] = Drug degradation in sodium phosphate buffer at pH 8 after 24 hrs by NMR analysis; assay type: physicochemical; details: read-out: Drug degradation
[9] = Drug degradation in sodium phosphate buffer at pH 7 after 30 mins by NMR analysis; assay type: physicochemical; details: read-out: Drug degradation
[10] = Drug degradation in sodium phosphate buffer at pH 7 after 1 hr by NMR analysis; assay type: physicochemical; details: read-out: Drug degradation
[11] = Drug degradation in sodium phosphate buffer at pH 7 after 24 hrs by NMR analysis; assay type: physicochemical; details: read-out: Drug degradation
[12] = Drug degradation in MES buffer at pH 6.5 after 30 mins by NMR analysis; assay type: physicochemical; details: read-out: Drug degradation
[13] = Drug degradation in MES buffer at pH 6.5 after 1 hr by NMR analysis; assay type: physicochemical; details: read-out: Drug degradation
[14] = Drug degradation in MES buffer at pH 6 after 30 mins by NMR analysis; assay type: physicochemical; details: read-out: Drug degradation
[15] = Drug degradation in MES buffer at pH 6 after 1 hr by NMR analysis; assay type: physicochemical; details: read-out: Drug degradation
[16] = Drug degradation in MES buffer at pH 6 after 24 hrs by NMR analysis; assay type: physicochemical; details: read-out: Drug degradation

T1 sequence (P22303 whole entry): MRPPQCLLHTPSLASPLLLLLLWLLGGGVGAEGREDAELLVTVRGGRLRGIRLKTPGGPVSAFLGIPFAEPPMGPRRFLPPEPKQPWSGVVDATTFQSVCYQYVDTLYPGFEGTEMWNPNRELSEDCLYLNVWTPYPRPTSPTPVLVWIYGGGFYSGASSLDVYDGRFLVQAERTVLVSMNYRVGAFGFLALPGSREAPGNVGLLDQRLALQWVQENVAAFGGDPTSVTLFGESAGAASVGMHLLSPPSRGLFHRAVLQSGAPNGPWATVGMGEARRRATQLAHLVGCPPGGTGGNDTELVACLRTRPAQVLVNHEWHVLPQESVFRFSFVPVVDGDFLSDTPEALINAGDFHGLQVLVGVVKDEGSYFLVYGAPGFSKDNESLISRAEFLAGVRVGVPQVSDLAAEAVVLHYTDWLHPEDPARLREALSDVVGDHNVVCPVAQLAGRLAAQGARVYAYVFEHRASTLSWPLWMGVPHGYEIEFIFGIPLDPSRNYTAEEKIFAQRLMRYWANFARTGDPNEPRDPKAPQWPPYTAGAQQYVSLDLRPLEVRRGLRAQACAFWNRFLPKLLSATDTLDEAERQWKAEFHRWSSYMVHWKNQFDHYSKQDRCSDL
Chain of Acetylcholinesterase (Musca domestica, UniProt Q7YWJ9) (Q7YWJ9 whole entry): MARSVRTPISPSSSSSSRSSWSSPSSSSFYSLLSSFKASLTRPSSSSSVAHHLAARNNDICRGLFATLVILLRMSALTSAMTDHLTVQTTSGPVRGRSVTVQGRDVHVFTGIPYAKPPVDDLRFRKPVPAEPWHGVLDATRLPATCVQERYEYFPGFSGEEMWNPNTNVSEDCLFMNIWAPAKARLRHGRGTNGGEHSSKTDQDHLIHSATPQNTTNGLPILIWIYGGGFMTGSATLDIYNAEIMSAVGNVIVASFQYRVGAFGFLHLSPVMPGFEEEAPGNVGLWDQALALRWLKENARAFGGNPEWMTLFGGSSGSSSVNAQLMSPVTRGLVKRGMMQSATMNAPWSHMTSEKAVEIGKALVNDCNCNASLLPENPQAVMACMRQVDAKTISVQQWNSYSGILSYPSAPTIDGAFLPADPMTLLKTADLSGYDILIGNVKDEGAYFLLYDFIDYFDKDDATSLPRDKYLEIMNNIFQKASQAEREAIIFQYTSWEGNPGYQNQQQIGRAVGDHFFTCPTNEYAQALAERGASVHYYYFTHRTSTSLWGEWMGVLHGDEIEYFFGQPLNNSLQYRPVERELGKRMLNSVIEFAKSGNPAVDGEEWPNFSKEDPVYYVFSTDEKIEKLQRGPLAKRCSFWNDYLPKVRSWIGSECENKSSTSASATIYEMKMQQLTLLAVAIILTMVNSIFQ

Structure (SMILES)	IC50 (Acetylcholinesterase [4]) [µM]	IC50 (Acetylcholinesterase [5]) [µM]	degraded at 0.5 h [6] [%]	degraded at 1 h [7] [%]	degraded at 24 h [8] [%]	also measured
COP1(=O)OC[C@H]2COC(=O)C2=C(C)O1 (single isomer, unassigned) [CYCLOPHOSTIN]	0.04					IC50 (Acetylcholinesterase [1]): 0.00076 µM; IC50 (Acetylcholinesterase [2]): 0.045 µM; Ki (Acetylcholinesterase [3]): 0.14 µM
CCOP1(=O)CCCC(C(=O)OC)=C(C)O1 (configuration not stated)	7.5	8.9				
COC(=O)C1=C(C)OP(=O)(OC)OCC1 (configuration not stated)	1.03	1.04	0	4	57	
COC(=O)C1=C(C)OP(=O)(OC)CCC1 (configuration not stated)	12	26	2	2	9.6	
COP1(=O)OCCC(C(=O)OC(C)(C)C)=C(C)O1 (configuration not stated)	5.9	6.1				
COP1(=O)OC[C@@H]2COC(=O)C2=C(C)O1 (single isomer, unassigned)	0.035					
CCOP1(=O)OC(C)=C(C(=O)OC)CCC1(F)F (configuration not stated)	> 100	> 100	5	50	100	degraded at 0.5 h [9]: 20%; degraded at 1 h [10]: 34%; degraded at 24 h [11]: 100%; degraded at 0.5 h [12]: 2.8%; degraded at 1 h [13]: 7.2%; degraded at 0.5 h [14]: 0.5%; degraded at 1 h [15]: 4.1%; degraded at 24 h [16]: 65%
